{"source": "patent US20130236568A1", "about": "“PHOSPHAPLATINS HAVING ANTI-ANGIOGENIC, ANTI-METASTATIC, AND PRO-APOPTOTIC PROPERTIES AND USES THEREOF” (Ohio University, priority 2011, published 2013)", "type_in_all_cases": "cell-based, human", "key": {"VEGFR2 gene [1]": {"system": "VEGFR2 gene", "experiment": "Quantitative real-time PCR, VEGFR2 gene expression in A2780 cells", "procedure": "(§1) Evaluations of selected gene expressions in Human Umbilical Vein Endothelial Cells (HUVEC) and Human Ovarian Cancer Cells by quantitative reverse transcriptase polymerase chain reaction (PCR)\n(§2) Quantitative real-time PCR experiments were performed to estimate the expression of a selection of targeted genes. HUVEC cells (Lonza Walkersville, Frederick, Md.) were cultured on 0.1% gelatin-coated petri dishes by following standard protocols recommended by the vendor in a humidified incubator by maintaining 5% CO2 at 37° C. Human epithelial ovarian cancer cells (A2780) and cisplatin-resistant cells (A2780/C30) were cultured in RPMI 1640 with or without cisplatin (7 μM) and pyrodach-4 (180 μM) for 0, 3, 12 and 24 hours. […] HUVECs were treated with or without cisplatin (7 μM) or pyrodach-4 (90 or 180 μM) for various durations ranging from 1 hr. to 6 hrs.\n(§3) Both treated and untreated cancer cells were maintained in RPMI 1640 medium with 10% fetal bovine serum, 2 μmol L-glutamine, 100 units/mL penicillin-streptomycin and 0.25 units/mL insulin solution, at 37° C. with 5% CO2. RNA was isolated from both the treated and untreated cells. […] The quantity and purity of RNA were determined by UV spectroscopy (NanoDrop 2000 Thermo Scientific, Wilmington, Del.). A minimum absorbance ratio index (ratio of the absorbance measured at 260 nm over that at 280 nm) of 1.9 was used as an acceptable purity. […] The target gene was labeled with a blue dye (FAM, absorbance: 494 nm, emission: 518 nm) while the reference gene was tagged with a green dye (VIC, absorbance: 538 nm, emission: 554 nm). The cDNA concentrations were selected such that the threshold cycle (Ct) values for the target genes were between 17 and 32, most sensitive for the fluorescence detection by ABI StepOnePlus™ instrument used for the measurements.\n(§4) The threshold cycle number (Ct), the point at which the fluorescence of the qPCR reaction just exceeds the threshold fluorescence of the detection system, was determined. […]"}, "VEGFR2 gene [2]": {"system": "VEGFR2 gene", "experiment": "Quantitative real-time PCR, VEGFR2 gene expression in A2780/C30 cells", "procedure": "as §1, §2, §3, §4"}, "PTEN": {"system": "PTEN", "experiment": "Quantitative real-time PCR, PTEN expression in A2780 cells", "conditions": "for Normalized expression of PTEN: control = 1.0", "procedure": "as §1, §2, §3, §4"}, "Caspase 9": {"system": "Caspase 9", "experiment": "Expression of key genes with and without p53 inhibitor (Table 3): Caspase 9", "conditions": "positive = manifold increase, negative = decrease vs untreated cells", "procedure": "as §2\nas §3, with “The cDNA concentrations were selected such that the threshold cycle (Ct) values for the target genes were between 17 and 32, most sensitive for the fluorescence detection by ABI StepOnePlus™ instrument used for the measurements.” left out"}, "FasL": {"system": "FasL", "experiment": "Expression of key genes with and without p53 inhibitor (Table 3): FasL", "conditions": "positive = manifold increase, negative = decrease vs untreated cells", "procedure": "as §2\nas §3, with “The cDNA concentrations were selected such that the threshold cycle (Ct) values for the target genes were between 17 and 32, most sensitive for the fluorescence detection by ABI StepOnePlus™ instrument used for the measurements.” left out"}, "VEGFR-2": {"system": "VEGFR-2", "experiment": "Expression of key genes with and without p53 inhibitor (Table 3): VEGFR-2", "conditions": "positive = manifold increase, negative = decrease vs untreated cells", "procedure": "as §2\nas §3, with “The cDNA concentrations were selected such that the threshold cycle (Ct) values for the target genes were between 17 and 32, most sensitive for the fluorescence detection by ABI StepOnePlus™ instrument used for the measurements.” left out"}, "E-cadherin": {"system": "E-cadherin", "experiment": "Immunofluorescent labeling of E-cadherin protein in A2780 cells", "conditions": "24 hr treatment at or below IC50 concentration", "procedure": "Left panels show E-cadherin bound to its antibody labeled with FITC (green). The middle and right panels represent nuclei stained with Prolong® Gold Antifade Reagent with 4′-6-Diamidino-2-phenylindole (DAPI, a nuclear stain) and merger of the left and middle panels (see Example 5 below for details).\nCells were grown on multi-chamber slide systems (Lab-Tek™, Nunc, Denmark). These cells were treated with pyrodach-4 at or below IC50 concentrations for 24 hours. Untreated cells were used as a control while treated and untreated cells without primary antibody labeling were used as negative controls. […] The Fas and E-cadherin proteins were detected via direct labeling using anti-Fas (FITC labeled, Santa Cruz Biotechnology, Inc., Santa Cruz, Calif.) and anti-E-cadherin (FITC labeled, BD Transduction Laboratories, Franklin Lakes, N.J.) fluorescently tagged antibodies. Other proteins, p53, BAX and PUMA were detected indirectly with fluorescently labeled secondary antibodies (Texas Red-conjugated anti-mouse IgG for p53 and Fluorescein-conjugated anti-rabbit IgG for BAX and PUMA, obtained from Vector Labs, Burlingame, Calif.) at 1:1000 dilution. […] The stain was cured for 24 hours before fluorescence images were acquired. […]"}}}
{"substance": "trans-(±)-1,2-cyclohexanediamine-trans-dihydroxo(pyrophosphato) platinum(IV) [Pyrodach-4]", "values": [{"measurement": "Normalized expression of VEGFR2 gene", "setting": "VEGFR2 gene [1]; A2780 (cisplatin-sensitive), positive = manifold increase, negative = relative decrease vs untreated cells, cisplatin 7 μM, pyrodach-4 180 μM", "value": "−2.0"}, {"measurement": "Suppression of VEGFR-2 gene expression", "setting": "VEGFR2 gene [1]; cisplatin-sensitive human ovarian cancer cells", "value": "≤ 50", "unit": "%"}, {"measurement": "Normalized expression of VEGFR2 gene", "setting": "VEGFR2 gene [2]; A2780/C30 (cisplatin-resistant), positive = manifold increase, negative = relative decrease vs untreated cells, cisplatin 7 μM, pyrodach-4 180 μM", "value": "−2.0"}, {"measurement": "Suppression of VEGFR-2 gene expression", "setting": "VEGFR2 gene [2]; cisplatin-resistant human ovarian cancer cells", "value": "≤ 50", "unit": "%"}, {"measurement": "Expression of the PTEN gene compared to control", "setting": "PTEN", "value": 5.5, "unit": "fold"}, {"measurement": "Normalized expression of PTEN", "setting": "PTEN; pyrodach-4 alone", "value": 5.5}, {"measurement": "Normalized expression of PTEN", "setting": "PTEN; pyrodach-4 in the presence of p53 inhibitor PTF-α", "value": 0.8}, {"measurement": "Expression of Caspase 9", "setting": "Caspase 9; Pyrodach-4 + PFT-α", "value": 1.0}, {"measurement": "Expression of Caspase 9", "setting": "Caspase 9; Pyrodach-4 treatment only", "value": 2.0}, {"measurement": "Expression of FasL", "setting": "FasL; Pyrodach-4 + PFT-α", "value": "undetectable"}, {"measurement": "Expression of FasL", "setting": "FasL; Pyrodach-4 treatment only", "value": 4.6}, {"measurement": "Expression of VEGFR-2", "setting": "VEGFR-2; Pyrodach-4 + PFT-α", "value": "−1.6"}, {"measurement": "Expression of VEGFR-2", "setting": "VEGFR-2; Pyrodach-4 treatment only", "value": "−1.9"}, {"measurement": "Diffusivity of E-cadherin (immunofluorescence)", "setting": "E-cadherin", "value": "reduces the diffusivity"}, {"measurement": "Expression of E-cadherin protein (immunofluorescence)", "setting": "E-cadherin", "value": "increases the expression"}]}
